Assay [1] has as its target T1, Neutrophil elastase (Homo sapiens) (UniProt P08246).
T1 sequence (whole entry): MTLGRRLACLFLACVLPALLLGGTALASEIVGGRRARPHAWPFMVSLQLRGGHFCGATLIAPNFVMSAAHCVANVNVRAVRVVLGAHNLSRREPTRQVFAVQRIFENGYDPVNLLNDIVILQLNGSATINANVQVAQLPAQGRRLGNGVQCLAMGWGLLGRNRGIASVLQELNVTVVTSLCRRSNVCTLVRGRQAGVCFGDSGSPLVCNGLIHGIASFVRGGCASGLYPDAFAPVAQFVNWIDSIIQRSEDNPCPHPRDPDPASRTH
In words: Compound was evaluated for the inhibitory activity against Human leukocyte elastase.

The next assay addresses T2, Neutrophil elastase (Homo sapiens, UniProt P08246).
T2 sequence (P08246 whole entry): T1 sequence (whole entry)
Description: Compound was evaluated for the inhibitory activity against Human leukocyte elastase; […].

Four compounds from ChEMBL document CHEMBL1127141, “Monocyclic -lactam inhibitors of human leukocyte elastase. Stereospecific synthesis and activity of 3,4-disubstituted-2-azetidinones” (Bioorg Med Chem Lett, 1993) can be followed below.

pKi: −log10 of the molar value.

For `CC[C@@H]1C(=O)N(C(=O)NCc2ccccc2)[C@H]1Oc1ccc(C(=O)O)cc1`, in assay [1], the K obs / 1 stood at 424 M⁻¹ s⁻¹.

`CCC1C(=O)N(C(=O)NCc2ccccc2)C1Oc1ccc(C(=O)O)cc1` (trans isomer) came in with a K obs / 1 in assay [1] of 2480 M⁻¹ s⁻¹.

Take `CC[C@@H]1C(=O)N(C(=O)NCc2ccccc2)[C@@H]1Oc1ccc(C(=O)O)cc1`: the K obs / 1 in assay [1] stood at 383 M⁻¹ s⁻¹.

As for `CC[C@H]1C(=O)N(C(=O)NCc2ccccc2)[C@H]1Oc1ccc(C(=O)O)cc1`, the pKi – broadly, the negative decadic logarithm of the Ki, by convention in mol/L – at Neutrophil elastase is 5.25.
